Laboratory results as given in patent US8354419B2, “Benzimidazole analogues for the treatment or prevention of flavivirus infections” (Vertex Pharmaceuticals Incorporated, priority 2009, dated 2013).

System: HCV (Ib) RNA replication
Assay: Cell-based luciferase reporter HCV (1b) RNA replication assay (replicon cell lines Huh-7 5.2 and ET)
Design: species or system Hepatitis C virus
Details: Hepatitis C virus, Huh-7, 96 h, HCV 1b genotype replicon, luciferase readout, 4 days incubation; read-out: EC50_1b
Description: Cell-Based Luciferase Reporter HCV (Ib) RNA Replication Assay Cell Culture
Replicon cell lines Huh-7, 5.2 and ET which are derived from the Huh-7 hepatocarcinoma cell line are maintained in culture as generally described in Krieger, N; Lohmann, V; Bartenschlager, R. Enhancement of hepatitis C virus RNA replication by cell culture-adaptive mutations. J. Virol. 2001, 75, 4614-4624. The Huh-7, 5.2 cells contain the highly cell culture-adapted replicon I389luc-ubi-neo/NS3-3′/5.1 construct that carries, in addition to the neomycin gene, an integrated copy to the firefly luciferase gene (Krieger, N; Lohmann, V; Bartenschlager, R. Enhancement of hepatitis C virus RNA replication by cell culture-adaptive mutations. J. Virol. 2001, 75, 4614-4624). This cell line allows measurement of HCV RNA replication and translation by measuring luciferase activity. It has been previously shown that the luciferase activity tightly follows the replicon RNA level in these cells (Krieger, N; Lohmann, V; Bartenschlager, R. Enhancement of hepatitis C virus RNA replication by cell culture-adaptive mutations. J. Virol. 2001, 75, 4614-4624). The Huh-7, ET cell line has the same features as those mentioned for Huh-7, 5.2 cell line, except that ET cells are more robust and contain an adaptative mutation in the HCV NS4B gene instead of NS5A. Both cell lines are maintained in cultures at a sub-confluent level (<85%) as the level of replicon RNA is highest in actively proliferating cells. The culture media used for cell passaging consist of DMEM (Gibco BRL Laboratories, Mississauga, ON, Canada) supplemented with 10% foetal bovine serum with 1% penicillin/streptomycin, 1% glutamine, 1% sodium pyruvate, 1% non-essential amino acids, and 180 ug/ml of G418 final concentration. Cells are incubated at 37° C., in an atmosphere of 5% CO2 and passaged twice a week to maintain sub-confluence.
Approximately 3000 viable Huh-7, 5.2 or ET cells (100 μl) are plated per well in a white opaque 96-well microtiter plate. The cell culture media used for the assay is the same as described above except that it contains no G418 and no phenol red. After an incubation period of 3-4 hours at 37° C. in a 5% CO2 incubator, compounds (100 μl) are added at various concentrations. Cells are then further incubated for 4 days at 37° C. in a 5% CO2 incubator. Thereafter, the culture media is removed and cells are lysed by the addition of 95 μL of the luciferase buffer (luciferin substrate in buffered detergent). Cell lysates are incubated at room temperature and protected from direct light for at least 10 minutes. Plates are read for luciferase counts using a luminometer (Wallac MicroBeta Trilux, Perkin ELmer™, MA, USA).
The 50% inhibitory concentrations (IC50s) for inhibitory effect are determined from dose response curves using eleven concentrations per compound in duplicate. Curves are fitted to data points using nonlinear regression analysis, and IC50s are interpolated from the resulting curve using GraphPad Prism software, version 2.0 (GraphPad Software Inc., San Diego, Calif., USA).
Table 2 show compounds representative of the present invention and the EC50 values against the HCV 1b genotype.

| Compound | EC50 |
| --- | --- |
| COC(=O)N[C@H](C(=O)N1CCC[C@H]1c1nc2cc(-c3cc(C)c(-c4ccc5nc([C@@H]6CCCN6C(=O)[C@@H](NC(=O)OC)C(C)C)[nH]c5c4)cc3C)ccc2[nH]1)C(C)C [Compound 14, ((S)-1-{(S)-2-[5-(4-{2-[(S)-1-((S)-2-Methoxycarbonylamino-3-methyl-butyryl)-pyrrolidin-2-yl]-1H-benzoimidazol-5-yl}-2,5-dimethyl-phenyl)-1H-benzoimidazol-2-yl]-pyrrolidine-1-carbonyl}-2-methyl-propyl)-carbamicacid methyl ester] | ≤ 5 nM |
| COC(=O)N[C@H](C(=O)N1CCC[C@H]1c1nc2cc(-c3cnc(-c4ccc5[nH]c([C@@H]6CCCN6C(=O)[C@@H](NC(=O)OC)C(C)C)nc5c4)nc3)ccc2[nH]1)C(C)C [Compound 15, ((S)-1-{(S)-2-[5-(5-{2-[(S)-1-((S)-2-Methoxycarbonylamino-3-methyl-butyryl)-pyrrolidin-2-yl]-1H-benzoimidazol-5-yl}-pyrimidin-2-yl)-1H-benzoimidazol-2-yl]-pyrrolidine-1-carbonyl}-2-methyl-propyl)-carbamic acid methyl ester] | ≤ 5 nM |
| CC(C)(C)OC(=O)N1CCC[C@H]1c1nc2cc(-c3ccc(-c4ccc5[nH]c([C@@H]6CCCN6C(=O)OC(C)(C)C)nc5c4)s3)ccc2[nH]1 [Compound 16, (2S,2′S)-tert-butyl-2,2′-(5,5′-(thiophene-2,5-diyl)bis(1H-benzo[d]imidazole-5,2-diyl))dipyrrolidine-1-carboxylate] | 5 to 5000 nM |
| COC(=O)N[C@H](C(=O)N1CCC[C@H]1c1nc2cc(-c3ccc(-c4ccc5[nH]c([C@@H]6CCCN6C(=O)[C@@H](NC(=O)OC)C(C)C)nc5c4)s3)ccc2[nH]1)C(C)C [Compound 17] | ≤ 5 nM |
| COC(=O)N[C@H](C(=O)N1CCC[C@H]1c1nc2cc(-c3csc(-c4ccc5[nH]c([C@@H]6CCCN6C(=O)[C@@H](NC(=O)OC)C(C)C)nc5c4)c3)ccc2[nH]1)C(C)C [Compound 18, methyl N-[(1S)-1-[(2S)-2-[5-[4-[2-[(2S)-1-[(2S)-2-(methoxycarbonylamino)-3-methyl-butanoyl]pyrrolidin-2-yl]-1H-benzimidazol-5-yl]-2-thienyl]-1H-benzimidazol-2-yl]pyrrolidine-1-carbonyl]-2-methyl-propyl]carbamate] | ≤ 5 nM |
| COC(=O)N[C@H](C(=O)N1CCC[C@H]1c1nc2cc(-c3ncc(-c4ccc5nc([C@@H]6CCCN6C(=O)[C@@H](NC(=O)OC)C(C)C)[nH]c5c4)c(OCc4ccccc4)n3)ccc2[nH]1)C(C)C [Compound 19, ((S)-1-{(S)-2-[5-(4-Benzyloxy-5-{2-[(S)-1-((S)-2-methoxycarbonylamino-3-methyl-butyryl)-pyrrolidin-2-yl]-1H-benzoimidazol-5-yl}-pyrimidin-2-yl)-1H-benzoimidazol-2-yl]-pyrrolidine-1-carbonyl}-2-methyl-propyl)-carbamic acid methyl ester] | ≤ 5 nM |
| COC(=O)N[C@H](C(=O)N1CCC[C@H]1c1nc2cc(-c3ncc(-c4ccc5nc([C@@H]6CCCN6C(=O)[C@@H](NC(=O)OC)C(C)C)[nH]c5c4)c(O)n3)ccc2[nH]1)C(C)C [Compound 20, ((S)-1-{(S)-2-[5-(4-Hydroxy-5-{2-[(S)-1-((S)-2-methoxycarbonylamino-3-methyl-butyryl)-pyrrolidin-2-yl]-1H-benzoimidazol-5-yl}-pyrimidin-2-yl)-1H-benzoimidazol-2-yl]-pyrrolidine-1-carbonyl}-2-methyl-propyl)-carbamic acid methyl ester] | 5 to 5000 nM |
| COC(=O)N[C@H](C(=O)N1CCC[C@H]1c1nc2ccc(-c3cn(-c4ccc5nc([C@@H]6CCCN6C(=O)[C@@H](NC(=O)OC)C(C)C)[nH]c5c4)nn3)cc2[nH]1)C(C)C [Compound 21, ((S)-1-{(S)-2-[6-(1-{2-[(S)-1-((S)-2-Methoxycarbonylamino-3-methyl-butyryl)-pyrrolidin-2-yl]-3H-benzoimidazol-5-yl}-1H-[1,2,3]triazol-4-yl)-1H-benzoimidazol-2-yl]-pyrrolidine-1-carbonyl}-2-methyl-propyl)-carbamic acid methyl ester] | ≤ 5 nM |
| CC[C@@H]1CC[C@@H](c2nc3cc(-c4ccc(-c5ccc6nc([C@@H]7CC[C@@H](CC)N7C(=O)[C@@H](NC(=O)OC)C(C)C)[nH]c6c5)cc4)ccc3[nH]2)N1C(=O)[C@@H](NC(=O)OC)C(C)C [Compound 24, ((S)-1-{(2R,5S)-2-Ethyl-5-[5-(4-{2-[(2S,5R)-5-ethyl-1-((S)-2-methoxycarbonylamino-3-methyl-butyryl)-pyrrolidin-2-yl]-1H-benzoimidazol-5-yl}-phenyl)-1H-benzoimidazol-2-yl]-pyrrolidine-1-carbonyl}-2-methyl-propyl)-carbamic acid methyl ester] | ≤ 5 nM |
| COC(=O)N[C@H](C(=O)N1C[C@H](OC(C)(C)C)C[C@H]1c1nc2cc(-c3ccc(-c4ccc5[nH]c([C@@H]6C[C@@H](OC(C)(C)C)CN6C(=O)[C@@H](NC(=O)OC)C(C)C)nc5c4)cc3)ccc2[nH]1)C(C)C [Compound 25, ((S)-1-{(2S,4R)-4-tert-butoxy-2-[5-(4-{2-[(2S,4R)-4-tert-butoxy-1-((S)-2-methoxycarbonylamino-3-methyl-butyryl)-pyrrolidin-2-yl]-1H-benzoimidazol-5-yl}-phenyl)-1H-benzoimidazol-2-yl]-pyrrolidine-1-carbonyl}-2-methyl-propyl)-carbamic acid methyl ester] | ≤ 5 nM |
| COC(=O)N[C@H](C(=O)N1CCC[C@H]1c1nc2cc(F)c(-c3ccc(-c4cc5[nH]c([C@@H]6CCCN6C(=O)[C@@H](NC(=O)OC)C(C)C)nc5cc4F)cc3)cc2[nH]1)C(C)C [Compound 27, Dimethyl (2S,2′S)-1,1′-((2S,2′S)-2,2′-(5,5′-(1,4-phenylene)bis(6-fluoro-1H-benzo[d]imidazole-5,2-diyl))bis(pyrrolidine-2,1-diyl))bis(3-methyl-1-oxobutane-2,1-diyl)dicarbamate] | ≤ 5 nM |
| CC(C)(C)OC(=O)N1CCN(C(=O)OCc2ccccc2)[C@H](c2nc3cc(C#Cc4ccc5[nH]c([C@@H]6CCCCN6C(=O)OCc6ccccc6)nc5c4)ccc3[nH]2)C1 [Compound 28, (S)-2-{5-[2-((S)-1-Benzyloxycarbonyl-piperidin-2-yl)-1H-benzoimidazol-5-ylethynyl]-1H-benzoimidazol-2-yl}-piperazine-1,4-dicarboxylic acid 1-benzyl ester 4-tert-butyl ester] | 5 to 5000 nM |
| CC(C)(C)OC(=O)N1CCN(C(=O)OCc2ccccc2)[C@H](c2nc3cc(C#Cc4ccc5[nH]c([C@@H]6CN(C(=O)OC(C)(C)C)CCN6C(=O)OCc6ccccc6)nc5c4)ccc3[nH]2)C1 [Compound 29, (S)-2-{5-[2-((S)-1-Benzyloxycarbonyl-4-tert-butyloxycarbonyl-piperazin-2-yl)-1H-benzoimidazol-5-ylethynyl]-1H-benzoimidazol-2-yl}-piperazine-1,4-dicarboxylic acid 1-benzyl ester 4-tert-butyl ester] | > 5000 nM |
| O=C(OCc1ccccc1)N1CCCC[C@H]1c1nc2cc(C#Cc3ccc4nc([C@@H]5CCCCN5C(=O)OCc5ccccc5)[nH]c4c3)ccc2[nH]1 [Compound 30, (S)-2-{5-[2-((S)-1-Benzyloxycarbonyl-piperidin-2-yl)-1H-benzoimidazol-5-ylethynyl]-1H-benzoimidazol-2-yl}-piperidine-1-carboxylic acid benzyl ester] | 5 to 5000 nM |
| O=C(OCc1ccccc1)N1CCC[C@H]1c1nc2cc(C#Cc3ccc4[nH]c([C@@H]5CCCN5C(=O)OCc5ccccc5)nc4c3)ccc2[nH]1 [Compound 31, (S)-2-{5-[2-((S)-1-Benzyloxycarbonyl-pyrrolidin-2-yl)-1H-benzoimidazol-5-ylethynyl]-1H-benzoimidazol-2-yl}-pyrrolidine-1-carboxylic acid benzyl ester] | 5 to 5000 nM |
| O=C([C@H]1CCCO1)N1CCC[C@H]1c1nc2cc(C#Cc3ccc4nc([C@@H]5CCCN5C(=O)[C@H]5CCCO5)[nH]c4c3)ccc2[nH]1 [Compound 32, [(S)-5-(5-{2-[(S)-1-((R)-tetrahydro-furan-2-carbonyl)-pyrrolidin-2-yl]-1H-benzoimidazol-5-ylethynyl}-1H-benzoimidazol-2-yl)-pyrrolidin-1-yl]-(R)-tetrahydro-furan-2-yl-methanone] | 5 to 5000 nM |
